Assay results published in patent US20220195275A1, “Biocompatible Oil Herders and Methods of Use” (Texas A&M University, priority 2019, published 2022).

Key:
[1] = system: black beans, red beans, and pinto beans; details: in vivo
Description: Edible black beans, red beans, and pinto beans were purchased from local supermarket. 12 black beans, 12 red beans, and 9 pinto beans were randomly chosen and set aside in lab atmosphere for 7 days. […] Beans were separated into three plastic petri dishes, into which four black beans, four red beans and three pinto beans each were placed. Three water environments were simulated, and beans were immersed with reference sea water, 0.25 wt % pristine KGM in sea water, and 0.25 wt % modified konjac glucomannan in sea water for 7 days.

[2] = Conductivity versus temperature / determination of Krafft point; type: physicochemical; details: for Conductivity: SDS (0.1 mol/L) in water
Method: The hand-held conductivity/TDS meter CN 6/TDS 6 of Oakton instruments was used to measure the conductivity and the temperature of the sample.
Sodium dodecyl sulfate (Ionic surfactant): sodium dodecyl sulfate in deionized water solution (0.1 mol/l) was prepared in a 200 ml glass beaker. The solution was stored in refrigerator at 5° C. for 24 hours. The sodium dodecyl sulfate surfactant has crystallized below the 5° C. atmosphere. The glass beaker was taken out of the refrigerator and placed on a hot plate stirrer. The conductivity meter probe was immersed into the solution. The dual measuring mode of conductivity meter could measure both the conductivity and the temperature. The solution was slightly heated to remain 0.2° C./min increase. The measured conductivity and temperature data were drawn in FIGS. 2A-2B. […]
Krafft temperature and solubility behavior of the ionic surfactant SDS and the non-ionic surfactant modified konjac glucomannan were discussed in FIGS. 2A-2D. […] The conductivity measurement was proven to be able to identify the Krafft temperature. Krafft temperature is the minimum temperature for surfactant to form micelles. There is an abrupt large solubility increase above the Krafft temperature. Surfactant working temperature should be higher than Krafft temperature for surfactant functioning.
First, 200 ml of SDS in deionized water solution of 0.1 mol/L concentration was prepared in a 200 ml glass beaker. The solution was left in refrigerator at 5° C. for 24 hours. This process has brought about the crystallization of the surfactant. The glass beaker is taken out of the refrigerator and placed on a hot plate stirrer (CORNING PC-420). The probe stick of the conductivity meter (TDS meter CON 6/TDS 6) is inserted into the solution. The dual measuring mode of conductivity meter can measure both the conductivity and the temperature. The conductivity of the solution is recorded from 12° C. and measured till 28° C. The solution is slightly heated to attain a steady temperature rise. The conductivity is measured at regular intervals of temperature (0.2° C. raise) and noted down. The whole process took about 2.5 hours. […]

[3] = Herding efficiency of PEG derivatives and commercial surfactants (slick thickness ratio vs herder concentration); details: 25° C.
Method: Herding surfactant is essentially a surface-active agent. To preliminarily investigate the material herding efficiency to oil, suitable polymer surfactants with […] were tested. Polyethylene glycol (PEG) is a water soluble polymer and easy to couple with hydrophobic chain to form surfactant. The experiments were performed at room temperature. The slick thickness ratio is defined as below: […]
Higher slick thickness ratio implied better herding quality. […] The effectiveness of surfactants at herding oil is directly related to the chemical structure of the PEG derivatives. […] The reason of slick thickness ratio curve of FIG. 8C and FIG. 8D remained flat were assumed to be its internal chemical structure large benzene rings and two side longer carbon chains. The benzene rings and longer carbon chains affected the steric hindrance of materials and largely restricted the hydrophobic side reaction with oil slick. They could not perform herding effect and thus curves in FIG. 8C and FIG. 8D remained flat, and the thickness ratio was close to 1.
More comparisons were tested to study herder efficiency with different commercial surfactants at varying temperatures and salinity. […] In FIG. 9B, the PEG-monolaurate retained high herding ability under 25° C. […]

konjac glucomannan
growth (sprouting) of beans [1]: did not affect the growth of the beans

CCCCCCCCCCCCOS(=O)(=O)[O-].[Na+] [SDS, sodium dodecyl sulfate]
Krafft temperature (sudden large increase in conductivity) ([2]; 0.1 mol/L in deionized water): 14.6 °C | Conductivity ([2]; 13 ° C.): 3.07 mS | Conductivity ([2]; 13.2 ° C.): 3.07 mS | Conductivity ([2]; 13.4 ° C.): 3.09 mS | Conductivity ([2]; 13.6 ° C.): 3.1 mS | Conductivity ([2]; 13.8 ° C.): 3.11 mS | Conductivity ([2]; 14 ° C.): 3.11 mS | Conductivity ([2]; 14.2 ° C.): 3.12 mS | Conductivity ([2]; 14.4 ° C.): 3.14 mS | Conductivity ([2]; 14.6 ° C.): 3.25 mS | Conductivity ([2]; 14.8 ° C.): 3.34 mS | Conductivity ([2]; 15 ° C.): 3.56 mS | Conductivity ([2]; 15.2 ° C.): 3.82 mS | Conductivity ([2]; 15.4 ° C.): 4.02 mS | Conductivity ([2]; 15.6 ° C.): 4.21 mS | Conductivity ([2]; 15.8 ° C.): 4.3 mS | Conductivity ([2]; 16 ° C.): 4.35 mS | Conductivity ([2]; 16.2 ° C.): 4.37 mS | Conductivity ([2]; 16.4 ° C.): 4.38 mS | Conductivity ([2]; 16.6 ° C.): 4.34 mS | Conductivity ([2]; 16.8 ° C.): 4.39 mS | Conductivity ([2]; 17 ° C.): 4.39 mS | Conductivity ([2]; 17.2 ° C.): 4.41 mS | Conductivity ([2]; 17.4 ° C.): 4.43 mS | Conductivity ([2]; 17.6 ° C.): 4.44 mS | Conductivity ([2]; 17.8 ° C.): 4.45 mS | Conductivity ([2]; 18 ° C.): 4.49 mS | Conductivity ([2]; 18.6 ° C.): 4.5 mS | Conductivity ([2]; 19 ° C.): 4.51 mS | Conductivity ([2]; 19.4 ° C.): 4.53 mS | Conductivity ([2]; 20 ° C.): 4.57 mS | Conductivity ([2]; 21 ° C.): 4.6 mS | Conductivity ([2]; 22 ° C.): 4.65 mS | Conductivity ([2]; 23 ° C.): 4.67 mS | Conductivity ([2]; 24 ° C.): 4.7 mS | Conductivity ([2]; 25 ° C.): 4.72 mS | Conductivity ([2]; 26 ° C.): 4.75 mS | Conductivity ([2]; 27 ° C.): 4.77 mS | Conductivity ([2]; 28 ° C.): 4.82 mS

Span-20
herding ability [3]: good herding ability
